The values that follow come from publication PMC5618791, “Double quick, double click reversible peptide “stapling”” (Chemical Science, 2017).

Series [1] addresses T1, RNase S protein (Bos taurus, UniProt P61823).
T1 construct: S protein 21-124; made in house; host or cells: proteolytic fragment of RNase A (subtilisin digestion)
T1 sequence (P61823 47-150): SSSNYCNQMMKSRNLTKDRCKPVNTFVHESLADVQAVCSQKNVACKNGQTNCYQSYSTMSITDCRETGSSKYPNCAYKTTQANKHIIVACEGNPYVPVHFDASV
Nature of the series: RNA degradation assay, restoration of S protein activity. Conditions: EtBr-labelled RNA, S peptides 0.1-2 μM, 50 mM Tris, 100 mM NaCl, pH 7.50, 60 min, room temperature, fluorescence, triplicate. Format: biochemical. As to the method:
Fig. 5 Biophysical and bioactivity analyses of WT-S and S derived peptides 3–4a,c. (a) Circular dichroism spectra recorded in water (30% TFE); (b) RNA degradation assay showing the restoration of S protein activity. S protein was used as a negative control, and RNase A as a positive control. (50 mM Tris, 100 mM NaCl, pH 7.50).
RNase A (10 mg) in Hepes (600 µL, 100 mM; pH = 8.0) was digested by subtilisin (5 mg/mL, 10 µL) for 4 hrs at 0 °C. After which, the buffer was acidified with a solution of HCl (1 M) to reach pH = 3. The acidic solution was stirred for 1 h at 2 °C. The reaction was monitored by HPLC using the Jupiter µ Proteo 90 A analytical column using a gradient (0-60% over 30 min). […]
RNA degradation assays were performed in 96-well black plates (Greiner Bio-one). Each experiment was run in triplicate and the fluorescence was measured using a Perkin Elmer EnVisionTM 2103 MultiLabel plate reader, with an excitation and emission at 510 nm and at […]
The buffer used in this enzymatic assay was Tris buffer (50 mM of Tris, 100 mM of NaCl, pH = 7.5). The adequate quantity of buffer was first added to each well to reach a total volume of 200 µL (150 µL for controls, 149 µL for 0.1 µM of S peptides, 148 µL for 0.2 µM of S peptides, 145 µL for 0.5 µM of S peptides, 140 µL for 1 µM of S peptides, 130 µL for 2 µM of S peptides). […]

The nature of series [2]: Circular dichroism, % helicity. The class given is physicochemical. Conditions: CD, peptide 10-20 μM, calculated from MRE at 222 nm. On the procedure: Samples were prepared in two different solvent systems (30% TFE:H2O, 30% CH3CN:water) to concentrations between 10 - 20 μM (Figure S 23). Considering the high number of hydrophobic residues in BID and S peptides, organic co-solvents were used to ensure good solubility and avoid aggregation at concentrations high enough for CD analyses. DMSO stocks of peptides were not used for CD due to its high absorbance below 230 nm.
The raw circular dichroism data obtained for the peptides was processed by the subtraction of the solvent signal and converted into a mean residue ellipticity:
Where = molar ellipticity[θ]MRE per residue, θ = circular dichroism at a given wavelength, c = molar concentration, l = path length in cm, R = number of residues in the peptide sequence.
Calculation of % helicity was performed by the following equation:[4]
Where: θH = Theoretical MRE for 100% helicity at 222 nm, θ0 = Theoretical MRE for 100% helicity at 222 nm at 0 °C = –44000, (∂θ/∂T) = temperature dependence of infinite helix = +250, T = temperature in °C, x = 3, Nr = number of residues in the peptide.
In both solvent systems, it is noteworthy that STA-peptides are more helical than RED-peptides or WT-peptides; with the exception of constrained S-Cys-peptides. The use of TFE as co-solvent in water enhances the α-helicity of both series of peptides compared to the use of acetonitrile in water. […]
thus bioactive) conformation. The S peptides show a low helix propensity which is consistent […]
Figure S 23: CD spectra A. and B. in 30% TFE:H 2O; C. and D. in 30% CH3CN:H 2O.
Table 1: Percentage of helicity in the three solvent systems […]
(also on this page, place not known: Molar residue ellipticity (deg.cm 2 .dmol -1 ) Molar residue ellipticity (deg.cm 2 .dmol -1 ) Molar residue ellipticity (deg.cm 2 .dmol -1 ) Molar residue ellipticity (deg.cm 2 .dmol -1 ) TFE:H2O; CH3CN:H2O.)

The structures appear in SMILES notation. Positions of bridges follow the written chain, without caps; N, C: chain ends. Residues, ends and D or L forms follow the SMILES beside them.

Turning to `CSCC[C@H](NC(=O)[C@H](Cc1c[nH]cn1)NC(=O)[C@H](CCC(N)=O)NC(=O)[C@@H]1CSSC[C@H](NC(=O)[C@H](C)NC(=O)[C@H](C)NC(=O)[C@@H](NC(=O)[C@H](CCC(=O)O)NC(=O)[C@H](CCCCN)NC(C)=O)[C@@H](C)O)C(=O)N[C@@H](CCCCN)C(=O)N[C@@H](Cc2ccccc2)C(=O)N[C@@H](CCC(=O)O)C(=O)N1)C(=O)N[C@@H](CC(=O)O)C(=O)N[C@@H](CO)C(N)=O` [2c] (Ac-KETAACKFECQHMDS-NH2; disulfide 6-10), the “Restoration of S protein (RNase) enzymatic activity” value in series [1] is given as “failure to restore S protein activity”. Moreover, the “Percentage of helicity, 30% CH3CN:H2O” value in series [2] (30% CH3CN:H2O) is 0%. The “Percentage of helicity, 30% TFE:H2O” value in series [2] (30% TFE:H2O) is recorded as 0%.
